Structures are written as SMILES.

As a reminder, the IC50 is the concentration at which inhibition is half-maximal. Read a high IC50 as weaker potency in that assay.

The target in this experiment is T1, Renin (Homo sapiens, UniProt P00797).
T1 sequence (P00797 whole entry): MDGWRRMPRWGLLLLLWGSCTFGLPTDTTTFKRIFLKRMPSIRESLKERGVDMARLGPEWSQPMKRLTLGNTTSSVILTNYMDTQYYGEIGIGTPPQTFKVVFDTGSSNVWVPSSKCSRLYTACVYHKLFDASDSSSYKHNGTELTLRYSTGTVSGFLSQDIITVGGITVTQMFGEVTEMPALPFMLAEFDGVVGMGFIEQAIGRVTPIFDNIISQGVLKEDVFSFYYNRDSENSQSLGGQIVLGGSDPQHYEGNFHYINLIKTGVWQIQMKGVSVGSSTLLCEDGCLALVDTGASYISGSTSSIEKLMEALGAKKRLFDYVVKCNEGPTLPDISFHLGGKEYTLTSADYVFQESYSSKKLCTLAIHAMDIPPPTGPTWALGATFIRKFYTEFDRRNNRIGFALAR
Nature of the experiment: The compound was evaluated in vitro for inhibition of human plasma renin at pH 7.4. It counts as cell-free.
In the case of `CC(C)(C)OC(=O)N[C@@H](Cc1ccccc1)C(=O)N[C@H]1CCC(=O)NCCC[C@@H](O)[C@H](O)[C@H](CC2CCCCC2)NC1=O`, the IC50 was more than 20 µM. With `CC(C)(C)OC(=O)N[C@@H](Cc1ccccc1)C(=O)N[C@H]1CNC(=O)CCCCOC(=O)[C@H](O)[C@H](CC2CCCCC2)NC1=O`, the IC50 amounted to 0.59 µM. Turning to `CC(C)(C)OC(=O)N[C@@H](Cc1ccccc1)C(=O)N[C@H]1CCC(=O)NCCCOC(=O)[C@H](O)[C@H](CC2CCCCC2)NC1=O`, half-maximal inhibition (IC50) was put at 7 µM. As for `CC(C)(C)OC(=O)N[C@@H](Cc1ccccc1)C(=O)N[C@H]1CCC(=O)NCCCC2(OCCO2)[C@H](O)[C@H](CC2CCCCC2)NC1=O`, the figure is more than 20 µM. `CC(C)(C)OC(=O)N[C@@H](Cc1ccccc1)C(=O)N[C@H]1CCC(=O)NCCOC(=O)[C@H](O)[C@H](CC2CCCCC2)NC1=O` displayed an IC50 of 0.61 µM. Molecule `CC(C)(C)OC(=O)N[C@@H](Cc1ccccc1)C(=O)N[C@H]1CNC(=O)CCCOC(=O)[C@H](O)[C@H](CC2CCCCC2)NC1=O` displayed an IC50 of 9.2 µM.

The molecule `CC(C)(C)OC(=O)N[C@@H](Cc1ccccc1)C(=O)N[C@H]1CCC(=O)NCCCC(=O)[C@H](O)[C@H](CC2CCCCC2)NC1=O` returned a concentration for half-maximal inhibition (IC50) of 14 µM. `CC(C)(C)OC(=O)N[C@@H](Cc1ccccc1)C(=O)N[C@H]1CCC(=O)NCCC[C@H](O)[C@H](O)[C@H](CC2CCCCC2)NC1=O`: the IC50 stood at 0.65 µM.

For the origin of these results see ChEMBL document CHEMBL1125196, “Design and synthesis of P2-P1'-linked macrocyclic human renin inhibitors” (J Med Chem, 1991).
